Patent US9670227B2, “Thienopyrimidine derivatives, a process for their preparation and pharmaceutical compositions containing them” (LES LABORATOIRES SERVIER, priority 2013, dated 2017)

Target: Mcl-1 protein (UniProtKB primary accession number: Q07820) (Homo sapiens, UniProt Q07820)
Assay: Inhibition of Mcl-1 by fluorescence polarisation, Method 1
Format: binding
Conditions: fluorescence polarisation test; Method 1, or Method 2 where the value is underlined (underlining not visible); read-out: IC50 (M) Mcl-1 FP
In short: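 Buffer of 10 mM HEPES pH 7.4 with 150 mM NaCl and 0.05% Tween 20 held 5 nM Mcl-1 and 1 nM fluorescein-tagged ligand (final). Compounds were tested as 11-point serial dilutions at 5% final DMSO, and binding was read by FP.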

Chain of Mcl-1 protein (Q07820 whole entry): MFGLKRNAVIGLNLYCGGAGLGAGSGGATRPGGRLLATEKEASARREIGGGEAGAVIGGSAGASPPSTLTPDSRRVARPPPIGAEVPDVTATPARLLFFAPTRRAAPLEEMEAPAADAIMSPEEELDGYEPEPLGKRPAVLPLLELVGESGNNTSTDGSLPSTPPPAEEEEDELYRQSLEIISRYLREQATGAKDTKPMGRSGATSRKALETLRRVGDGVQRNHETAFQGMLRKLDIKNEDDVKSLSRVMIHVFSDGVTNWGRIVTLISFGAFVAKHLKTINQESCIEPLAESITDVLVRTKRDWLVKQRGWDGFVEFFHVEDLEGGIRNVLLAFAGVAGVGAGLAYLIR

Point of comparison: `CCOC(=O)C(Cc1ccccc1OCc1ccnc(-c2ccccc2O)n1)Oc1ncnc2sc(-c3ccc(F)cc3)c(-c3ccc(OCCN4CCNCC4)c(Cl)c3C)c12` [Example 798, ethyl (2R)-2-{[(5Sa)-5-{3-chloro-2-methyl-4-[2-(piperazin-1-yl)ethoxy]phenyl}-6-(4-fluorophenyl)thieno[2,3-d]pyrimidin-4-yl]oxy}-3-(2-{[2-(2-hydroxyphenyl)pyrimidin-4-yl]methoxy}phenyl)propanoate], IC50 5.15e-06 M. Against it:
- CCOC(=O)C(Cc1ccccc1OCc1ccnc(-c2ccccc2O)n1)Oc1ncnc2sc(-c3ccc(F)cc3)c(-c3ccc(OCCN4CCN(C)CC4)c(Cl)c3C)c12 [Example 793, ethyl (2R)-2-{[(5Sa)-5-{3-chloro-2-methyl-4-[2-(4-methylpiperazin-1-yl)ethoxy]phenyl}-6-(4-fluorophenyl)thieno[2,3-d]pyrimidin-4-yl]oxy}-3-(2-{[2-(2-hydroxyphenyl)pyrimidin-4-yl]methoxy}phenyl)propanoate] — within 1.5-fold, 5.37e-06 M
- CCOC(=O)C(Cc1ccccc1OCc1ccnc(-c2ccccc2OC)n1)Oc1ncnc2sc(-c3ccc(F)cc3)c(-c3ccc(OCCN4CCNCC4)c(Cl)c3C)c12 [Example 795, ethyl (2R)-2-{[(5Sa)-5-{3-chloro-2-methyl-4-[2-(piperazin-1-yl)ethoxy]phenyl}-6-(4-fluorophenyl)thieno[2,3-d]pyrimidin-4-yl]oxy}-3-(2-{[2-(2-methoxyphenyl)pyrimidin-4-yl]methoxy}phenyl)propanoate] — 6.1-fold lower, 8.5e-07 M
- CCOC(=O)C(Cc1ccccc1OCc1ccnc(-c2ccccc2OCCOC)n1)Oc1ncnc2sc(-c3ccc(F)cc3)c(-c3ccc(OCCN4CCN(C)CC4)c(Cl)c3C)c12 [Example 796, ethyl (2R)-2-{[(5Sa)-5-{3-chloro-2-methyl-4-[2-(4-methylpiperazin-1-yl)ethoxy]phenyl}-6-(4-fluorophenyl)thieno[2,3-d]pyrimidin-4-yl]oxy}-3-[2-({2-[2-(2-methoxyethoxy)phenyl]pyrimidin-4-yl}methoxy)phenyl]propanoate] — 10-fold lower, 5.16e-07 M
- CCOC(=O)C(Cc1ccccc1OCc1ccnc(-c2ccccc2F)n1)Oc1ncnc2sc(-c3ccc(F)cc3)c(-c3ccc(OCCN4CCN(C)CC4)c(Cl)c3C)c12 [Example 797, ethyl (2R)-2-{[(5Sa)-5-{3-chloro-2-methyl-4-[2-(4-methylpiperazin-1-yl)ethoxy]phenyl}-6-(4-fluorophenyl)thieno[2,3-d]pyrimidin-4-yl]oxy}-3-(2-{[2-(2-fluorophenyl)pyrimidin-4-yl]methoxy}phenyl)propanoate] — 1.9-fold lower, 2.75e-06 M
- COCCOC(=O)C(Cc1ccccc1OCc1ccnc(-c2ccccc2OCCOC)n1)Oc1ncnc2sc(-c3ccc(F)cc3)c(-c3ccc(OCCN(C)C)c(Cl)c3C)c12 [Example 800, 2-methoxyethyl (2R)-2-{[(5Sa)-5-{3-chloro-4-[2-(dimethylamino)ethoxy]-2-methylphenyl}-6-(4-fluorophenyl)thieno[2,3-d]pyrimidin-4-yl]oxy}-3-[2-({2-[2-(2-methoxyethoxy)phenyl]pyrimidin-4-yl}methoxy)phenyl]propanoate] — 3.7-fold lower, 1.39e-06 M
- CCOC(=O)C(Cc1ccccc1OCc1ccnc(-c2ccccc2F)n1)Oc1ncnc2sc(-c3ccc(F)cc3)c(-c3ccc(OCCN(C)CC)c(Cl)c3C)c12 [Example 801, ethyl (2R)-2-{[(5Sa)-5-(3-chloro-4-{2-[ethyl(methyl)amino]ethoxy}-2-methylphenyl)-6-(4-fluorophenyl)thieno[2,3-d]pyrimidin-4-yl]oxy}-3-(2-{[2-(2-fluorophenyl)pyrimidin-4-yl]methoxy}phenyl)propanoate] — within 1.5-fold, 4.37e-06 M
- COCCOC(=O)C(Cc1ccccc1OCc1ccnn1C(C)(C)C)Oc1ncnc2sc(-c3ccc(F)cc3)c(-c3ccc(OCCN(C)C)c(Cl)c3C)c12 [Example 802, 2-methoxyethyl (2R)-3-{2-[(1-tert-butyl-1H-pyrazol-5-yl)methoxy]phenyl}-2-{[(5Sa)-5-{3-chloro-4-[2-(dimethylamino)ethoxy]-2-methylphenyl}-6-(4-fluorophenyl)thieno[2,3-d]pyrimidin-4-yl]oxy}propanoate] — 1.8-fold lower, 2.88e-06 M
- CCN(C)CCOc1ccc(-c2c(-c3ccc(F)cc3)sc3ncnc(OC(Cc4ccccc4OCc4ccnc(-c5ccccc5F)n4)C(=O)OCCOC)c23)c(C)c1Cl [Example 803, 2-methoxyethyl (2R)-2-{[(5Sa)-5-(3-chloro-4-{2-[ethyl(methyl)amino]ethoxy}-2-methylphenyl)-6-(4-fluorophenyl)thieno[2,3-d]pyrimidin-4-yl]oxy}-3-(2-{[2-(2-fluorophenyl)pyrimidin-4-yl]methoxy}phenyl)propanoate] — 1.6-fold lower, 3.14e-06 M
- CCOC(=O)C(Cc1ccccc1OCc1ccnn1C(C)(C)C)Oc1ncnc2sc(-c3cccc(F)c3F)c(-c3ccc(OCCN(C)C)c(Cl)c3C)c12 [Example 804, ethyl (2R)-3-{2-[(1-tert-butyl-1H-pyrazol-5-yl)methoxy]phenyl}-2-{[(5Sa)-5-{3-chloro-4-[2-(dimethylamino)ethoxy]-2-methylphenyl}-6-(2,3-difluorophenyl)thieno[2,3-d]pyrimidin-4-yl]oxy}propanoate] — 9.1-fold higher, 4.68e-05 M
- CCOC(=O)C(Cc1ccccc1OCc1ccnc(-c2ccccc2OCCOC)n1)Oc1ncnc2sc(-c3ccc(F)cc3)c(-c3ccc(OCCN(C)C)c(Cl)c3C)c12 [Example 806, ethyl (2R)-2-{[(5Sa)-5-{3-chloro-4-[2-(dimethylamino)ethoxy]-2-methylphenyl}-6-(4-fluorophenyl)thieno[2,3-d]pyrimidin-4-yl]oxy}-3-[2-({2-[2-(2-methoxyethoxy)phenyl]pyrimidin-4-yl}methoxy)phenyl]propanoate] — 3.2-fold lower, 1.63e-06 M

Same assay, conditions: fluorescence polarisation; Method 1, or Method 2; read-out: IC50 (M) Mcl-1 FP

Point of comparison: `CCOC(=O)C(Cc1ccccc1OCc1ccnn1C(C)(C)C)Oc1ncnc2sc(-c3ccc(F)cc3)c(-c3ccc(OCCN4CCN(C)CC4)c(Cl)c3C)c12` [Example 791, ethyl (2R)-3-{2-[(1-tert-butyl-1H-pyrazol-5-yl)methoxy]phenyl}-2-{[(5Sa)-5-{3-chloro-2-methyl-4-[2-(4-methylpiperazin-1-yl)ethoxy]phenyl}-6-(4-fluorophenyl)thieno[2,3-d]pyrimidin-4-yl]oxy}propanoate], IC50 2.26e-06 M. Against it:
- Cc1c(-c2c(-c3ccc(F)cc3)sc3ncnc(O[C@H](Cc4ccccc4OCc4ccnc(-c5ccccc5O)n4)C(=O)O)c23)ccc(OCCN2CCNCC2)c1Cl [Example 749, (2R)-2-{[(5Sa)-5-{3-chloro-2-methyl-4-[2-(piperazin-1-yl)ethoxy]phenyl}-6-(4-fluorophenyl)thieno[2,3-d]pyrimidin-4-yl]oxy}-3-(2-{[2-(2-hydroxyphenyl)pyrimidin-4-yl]methoxy}phenyl)propanoic acid] — 270-fold lower, 8.24e-09 M
- Cc1c(-c2c(-c3ccc(OCc4ccn(C)n4)cc3)sc3ncnc(OC(Cc4ccccc4OCC(F)(F)F)C(=O)O)c23)ccc(OCCN2CCN(C)CC2)c1Cl [Example 780, (2R)-2-[((5Sa)-5-{3-chloro-2-methyl-4-[2-(4-methylpiperazin-1-yl)ethoxy]phenyl}-6-{4-[(1-methyl-1H-pyrazol-3-yl)methoxy]phenyl}thieno[2,3-d]pyrimidin-4-yl)oxy]-3-[2-(2,2,2-trifluoroethoxy)phenyl]propanoic acid] — 310-fold lower, 7.26e-09 M
- COc1ccccc1-c1nccc(COc2ccccc2CC(Oc2ncnc3sc(C#CCCN4CCOCC4)c(-c4ccc(OCCN5CCN(C)CC5)c(Cl)c4C)c23)C(=O)O)n1 [Example 785, (2R)-2-[((5Sa)-5-{3-chloro-2-methyl-4-[2-(4-methylpiperazin-1-yl)ethoxy]phenyl}-6-[4-(morpholin-4-yl)but-1-yn-1-yl]thieno[2,3-d]pyrimidin-4-yl)oxy]-3-(2-{[2-(2-methoxyphenyl)pyrimidin-4-yl]methoxy}phenyl)propanoic acid] — 590-fold lower, 3.85e-09 M
- COc1ccccc1-c1nccc(COc2ccccc2CC(Oc2ncnc3sc(C#CCN4CCOCC4)c(-c4ccc(OCCN5CCN(C)CC5)c(Cl)c4C)c23)C(=O)O)n1 [Example 786, (2R)-2-[((5Sa)-5-{3-chloro-2-methyl-4-[2-(4-methylpiperazin-1-yl)ethoxy]phenyl}-6-[3-(morpholin-4-yl)prop-1-yn-1-yl]thieno[2,3-d]pyrimidin-4-yl)oxy]-3-(2-{[2-(2-methoxyphenyl)pyrimidin-4-yl]methoxy}phenyl)propanoic acid] — 460-fold lower, 4.95e-09 M
- CC#Cc1sc2ncnc(OC(Cc3ccccc3OCc3ccnn3C(C)(C)C)C(=O)OCC)c2c1-c1ccc(OCCN2CCN(C)CC2)c(Cl)c1C [Example 792, ethyl (2R)-3-{2-[(1-tert-butyl-1H-pyrazol-5-yl)methoxy]phenyl}-2-{[(5Sa)-5-{3-chloro-2-methyl-4-[2-(4-methylpiperazin-1-yl)ethoxy]phenyl}-6-(prop-1-yn-1-yl)thieno[2,3-d]pyrimidin-4-yl]oxy}propanoate] — 2.8-fold higher, 6.44e-06 M

Same assay, conditions: test compound at 10 uM; Method 1, or Method 2 where the value is underlined (underlining not visible)

Point of comparison: `COCCOC(=O)[C@@H](Cc1ccccc1OCc1ccnn1C(C)(C)C)Oc1ncnc2sc(-c3cccc(F)c3F)c(-c3ccc(OCCN(C)C)c(Cl)c3C)c12` [Example 805, 2-methoxyethyl (2R)-3-{2-[(1-tert-butyl-1H-pyrazol-5-yl)methoxy]phenyl}-2-{[(5Sa)-5-{3-chloro-4-[2-(dimethylamino)ethoxy]-2-methylphenyl}-6-(2,3-difluorophenyl)thieno[2,3-d]pyrimidin-4-yl]oxy}propanoate], “percentage fluorescence polarisation inhibition (Mcl-1 FP), partial inhibitors” value 53.5% @ 10 uM. Against it:
- COCCOC(=O)[C@@H](Cc1ccccc1OCc1ccnc(-c2ccccc2F)n1)Oc1ncnc2sc(-c3ccc(F)cc3)c(-c3ccc(OCCN(C)C)c(Cl)c3C)c12 [Example 799, 2-methoxyethyl (2R)-2-{[(5Sa)-5-{3-chloro-4-[2-(dimethylamino)ethoxy]-2-methylphenyl}-6-(4-fluorophenyl)thieno[2,3-d]pyrimidin-4-yl]oxy}-3-(2-{[2-(2-fluorophenyl)pyrimidin-4-yl]methoxy}phenyl)propanoate] — higher, 59.6% @ 10 uM
